Experimental data published in the NIST ThermoML archive (doi:10.1016/j.jct.2014.07.013).
± gives the expanded uncertainty stated by the source.

Conditions: Liquid, Closed cell (Static) method

SMILES | vapor or sublimation pressure (258.15 K) | vapor or sublimation pressure (263.15 K) | vapor or sublimation pressure (273.15 K) | vapor or sublimation pressure (283.15 K)
CCC [propane] | 291.6 ± 1.1 kPa | 345.3 ± 1.1 kPa | 474.5 ± 1.2 kPa | 636.8 ± 1.4 kPa
FC(F)(F)I [trifluoroiodomethane] | 133 ± 1 kPa | 160.4 ± 1 kPa | 228.4 ± 1.1 kPa | 316.5 ± 1.1 kPa
